Columns and labels:
[1] = molecular target: T1, PheX-D6 (Methanosarcina barkeri, UniProt Q6WRH6, C313M/N311A/V366G/W382T); assay: ESI-MS encoding fidelity of sfGFP_N150TAG expressed in HEK 293T cells with PheX-D6; format: cell-based, human; design: Phex-D6 HEK; expressed in transfected cells; host or cells: HEK 293T; details: PheX-D6, HEK 293T cells, 2 mM ncAA, estimated
Procedure: (§1) HEK 293T cells were expanded in […]. […] Overall, 7-40 dishes were transfected with master mixes such that each dish received 3.5 μg of pACBAC1, 1.5 μg sfGFP_N150TAG, and 15 μL of PolyJET according to manufacturer's instructions. Media was changed before transfection and approximately 18 hrs after transfection. Cells were harvested approximately 36 hours after transfection. To harvest, each dish was washed twice with DPBS. Cells were harvested via scraping in ice-cold DPBS plus Roche protease inhibitors, on ice, pelleted by centrifugation, and flash frozen in liquid nitrogen. Cells were lysed in hypotonic lysis buffer (10 mM Tris/HCl pH 8, Roche protease inhibitors, 0.1% Triton X 100 Sigma) via dounce homogenization on ice. Cell debris and nuclei were cleared via centrifugation. Clarified lysate was diluted 1:2 in Wash buffer (25 mM Tris/HCl pH 8, 20 mM Imidazole, 150 mM NaCl) and applied to pre-equilibrated Ni-NTA resin (Qiagen). Column was washed in at least 30 volumes of wash buffer, then protein was eluted in elution buffer (25 mM Tris/HCl pH 8, 250 mM Imidazole, 150 mM NaCl). Elution was exchanged into 100 mM TEAB, prepared via 1:10 dilution of 1 M Stock (thermofisher) in ultrapure water. Finally, protein was concentrated to ˜0.5 mg/ml, flash frozen, and submitted to Novatia Inc for ESI mass spec of the intact protein. […] The spectra was analyzed in-house by Novatia (Promass software) to yield relative intensities of the dominant mass and any other apparent peaks. […] To be conservative, all other peaks were considered unexpected mass, even though they may not represent actual misincorporation.
Target sequence in this assay (Q6WRH6 other isoform, or with tags, fused parts or gaps N311A/C313M/V366G/W382T): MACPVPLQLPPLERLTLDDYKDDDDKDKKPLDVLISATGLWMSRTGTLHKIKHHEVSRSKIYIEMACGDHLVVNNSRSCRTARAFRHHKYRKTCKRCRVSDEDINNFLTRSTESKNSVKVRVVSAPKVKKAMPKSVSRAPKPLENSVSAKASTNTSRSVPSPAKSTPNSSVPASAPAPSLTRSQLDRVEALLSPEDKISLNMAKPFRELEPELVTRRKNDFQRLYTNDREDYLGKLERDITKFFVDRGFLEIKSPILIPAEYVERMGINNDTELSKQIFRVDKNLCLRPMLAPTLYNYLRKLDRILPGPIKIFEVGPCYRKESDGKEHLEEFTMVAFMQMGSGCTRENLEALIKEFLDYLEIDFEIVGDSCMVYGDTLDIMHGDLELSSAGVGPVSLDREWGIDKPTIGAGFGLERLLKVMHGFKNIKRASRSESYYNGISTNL

[2] = molecular target: T2, PheX-B5 (Methanosarcina barkeri, UniProt Q6WRH6, C313A/N311G); assay: ESI-MS encoding fidelity of sfGFP_N150TAG expressed in HEK 293T cells with PheX-B5; format: cell-based, human; design: Phex-B5 HEK; expressed in transfected cells; host or cells: HEK 293T; details: for fidelity (encoding): PheX-B5, HEK 293T cells, sfGFP_N150TAG, 2 mM ncAA, ESI-MS, estimated
Procedure: as §1
Target sequence in this assay (Q6WRH6 other isoform, or with tags, fused parts or gaps N311G/C313A): as the sequence (Q6WRH6 other isoform, or with tags, fused parts or gaps N311A/C313M/V366G/W382T) above, with A336G, M338A, G391V, T407W counted along it

[3] = system: sfGFP-N150TAG; assay: Permissivity screen (E. coli), sfGFP-N150TAG rescue fluorescence; format: cell-based; details: result in words; for encoding level in E. coli by the synthetases tested: 1 mM ncAA, 24 hours
Procedure: Electrocompetent DH10B cells containing the pALS reporter plasmid were transformed with isolated pBK plasmids containing the synthetases. Cultures of 5 mL were inoculated with single colonies of each synthetase in non-inducing media with 50 μg/mL kanamycin and 25 μg/mL tetracycline and grown for 16 hours. Noncanonical amino acid stocks were made at 100× their final concentration. 96-well blocks were prepared with 500 μL of auto-induction media containing antibiotics, and ncAAs with a final working concentration of 1 mM were added to their respective wells. Each well was then inoculated with a corresponding synthetase, yielding a final 96-well block where each synthetase was tested against each amino acid of interest. Cultures were grown in duplicate and fluorescence measurements were taken at 24 hours.

[4] = molecular target: T1, PheX-D6; assay: ESI-MS encoding fidelity of sfGFP_N150TAG expressed in E. coli with PheX-D6; format: cell-based; design: Phex-D6 ECOLI; expressed in transfected cells; host or cells: E. coli; details: sfGFP N150TAG, 1 mM ncAA, intact protein ESI-MS
Procedure: (§2) Previously existing E. coli containing sfGFP150TAG and a given Rs in non-inducing media were used to inoculate 5 mL cultures of non-inducing media containing 50 μg/mL Kan and 25 μg/mL Tet. Cultures were incubated for 20 hours at 37° C., shaking at 250 rpm. After adequate growth, 500 μL of the 5 mL cultures were used to inoculate 50 mL cultures of auto-inducing media containing 1 mM ncAA. Cultures were incubated for 24 hours (37° C., 250 rpm), after which cultures were then spun down at 5000 rcf for 10 minutes and resuspended in 10 mL of a Tris buffer solution containing 100 mM Tris, 0.5 M NaCl, and 5 mM imidazole. Cells were lysed by micro-fluidization at 18,000 psi and centrifuged at […] for 30 minutes. sfGFP proteins in cell lysate were bound to TALON Metal Affinity Resin (bed volume of 100 μL) at 4° C. for 1 hour. Lysate and bound resin were transferred to a gravity-flow column and the resin was washed with 30 bed volumes of buffer. Protein was eluted using Tris buffer solution previously described supplemented with 200 mM imidazole. Protein concentration was assessed by comparing sfGFP fluorescence to a standard curve and submitted for ESI-MS.
(§3) The spectra were analyzed in-house by Novatia (Promass) to yield relative intensities at given masses. […] For the purpose of estimating encoding fidelity, these were considered part of the expected mass, and all other signals were considered non-expected mass.
Target sequence in this assay (Q6WRH6 whole entry N311A/C313M/V366G/W382T): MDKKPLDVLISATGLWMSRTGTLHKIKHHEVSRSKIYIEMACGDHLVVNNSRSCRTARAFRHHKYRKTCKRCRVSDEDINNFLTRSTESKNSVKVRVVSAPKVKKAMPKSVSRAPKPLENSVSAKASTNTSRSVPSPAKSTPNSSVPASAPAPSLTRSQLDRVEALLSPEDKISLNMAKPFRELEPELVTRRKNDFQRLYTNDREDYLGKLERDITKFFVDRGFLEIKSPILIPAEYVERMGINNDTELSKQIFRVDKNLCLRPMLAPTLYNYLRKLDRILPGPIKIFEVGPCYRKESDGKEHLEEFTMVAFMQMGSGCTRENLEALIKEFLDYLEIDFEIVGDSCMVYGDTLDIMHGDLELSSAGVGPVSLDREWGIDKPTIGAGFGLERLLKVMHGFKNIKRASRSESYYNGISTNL

[5] = molecular target: T2, PheX-B5; format: cell-based; design: Phex-B5 ECOLI; expressed in transfected cells; host or cells: E. coli; details: PheX-B5, E. coli, sfGFP N150TAG, 1 mM ncAA, intact protein ESI-MS
Procedure: as §2, §3
Target sequence in this assay (Q6WRH6 whole entry N311G/C313A): as the sequence (Q6WRH6 whole entry N311A/C313M/V366G/W382T) above, with A311G, M313A, G366V, T382W counted along it

[6] = system: F508TAG-CFTR; assay: Western blot of full-length F508TAG-CFTR expression via PheX-D6; format: cell-based, human; details: F508TAG CFTR with PheX-D6, HEK 293T, 2 mM ncAA, result in words
Procedure: (§4) pCMV-CFTR was a gift from Paul McCray (University of Iowa). WT CFTR-TAA (the existing TAG stop codon changed to TAA), F508 TAG CFTR (TAG amber codon introduced at F508 in the above WT construct), as well as WT and F1486TAG hNav 1.5_strep_HIS_strep were produced using standard methods and sequenced through the open reading frame. For expression of WT CFTR, 10 cm dishes of HEK 293T cells were transfected with 1.5 μg WT CFTR-TAA and 0.25 μg WT GFP. For expression of WT hNav 1.5, 10 cm dishes of HEK 293T cells were transfected with 1.5 μg of WT hNav 1.5_strep_HIS_strep and 0.25 μg WT GFP. For encoding of 2,3,6F Phe, 10 cm dishes of HEK 293T cells were transfected from master mixes of DNA such that each dish received 3.5 μg of PheX-D6 and 0.25 μg of sfSFGFP_N150TAG. Depending on condition, 2 μg of F508TAG-CFTR or 1.5 μg of F1486TAG-Nav 1.5-SHS were added. Media was changed twice (˜16 hr and ˜32 hr post transfection), and cells were harvested ˜44 hrs post transfection and flash frozen in aliquots. Cell pellets were resuspended in RIPA (Sigma Aldrich) plus Roche protease inhibitors. 60 μg of protein from cleared, unconcentrated lysate (or a dilution) was loaded on 4-20% SDS gels. […]

[7] = system: F1486TAG-hNav 1.5; assay: Western blot of full-length F1486TAG-hNav 1.5 expression via PheX-D6; format: cell-based, human; details: F1486TAG hNav 1.5 with PheX-D6, HEK 293T, 2 mM ncAA, result in words
Procedure: as §4

[8] = system: sfGFP_N150TAG; assay: Permissivity screen (mammalian), lysate GFP fluorescence; format: cell-based, human; details: HEKT cells, PheX-D6, result in words
Procedure: HEKT cells were seeded in 60 mm dishes so that they would be approximately 60-80% confluent the next day. We transfected the cells using 1.75 μg of the PacBac1-based synthetase plasmid (PheX-D6 or PheX-B5) and 0.75 μg of sfGFP_N150TAG per dish. Polyjet was used (7.5 μl per dish, 2.5 mL media volume). Media was exchanged to contain ncAAs at a given concentration before transfection and approximately 16 hours after transfection. Amino acids were solubilized either in NaOH for those synthesized as free acids (penta-flouro, 2,3,6 trifluoro, 3,4,5 trifluoro, 2,5 difluoro, 2,4 difluoro, 2 mono) or in HCl for those synthesized as HCl salts (2,3,5,6 tetrafluoro, 2,3,4,5 tetrafluoro, 2,6 difluoro). Cells were imaged and harvested approximately 24 hrs after transfection. Images were taken with 20× objective using a Leica DFC9000GT camera with 700 ms exposure, without binning. Excitation was through an X-Cite 120 LED (Lumen Dynamics) set to 100% intensity. For bright field images, light was adjusted manually. […] After cell debris and nuclei were cleared via centrifugation, GFP fluorescence was read from supernatants in 96 well plates; for each concentration of amino acid, at least 6 readings were made from at least 2 transfections. The level of fluorescence from lysates from untransfected cells averaged 21.7±2.1 RFU. […]

## N[C@@H](Cc1cc(F)ccc1F)C(=O)O [2,5-fluoro phenylalanine, 2,5-difluoro-Phe]
[1]
  fidelity (encoding): 95.6%
[2]
  fidelity (encoding): 91.3%

## N[C@@H](Cc1c(F)c(F)cc(F)c1F)C(=O)O [2,3,5,6-fluoro Phe, 2,3,5,6 tetra-fluoro Phenylalanine]
[3]
  encoding level in E. coli by the synthetases tested: comparable levels to para-methyl tetra-fluoro Phe
[1]
  fidelity (encoding): 98.2%
[2]
  fidelity (encoding): 100%
[4]
  encoding fidelity: 98.7%
[5]
  encoding fidelity: 97.9%

## N[C@@H](Cc1c(F)ccc(F)c1F)C(=O)O [2,3,6-fluoro Phe, 2,3,6 tri-fluoro Phenylalanine]
[6]
  expression of full-length channel (western blot): dependent on addition of 2,3,6F Phe
[7]
  expression of full-length channel (western blot): dependent on addition of 2,3,6F Phe
[1]
  fidelity (encoding): 98.5%
[2]
  fidelity (encoding): 100%
[4]
  encoding fidelity: 96.7%
[5]
  encoding fidelity: 88.1%

## N[C@@H](Cc1cc(F)c(F)c(F)c1F)C(=O)O [2,3,4,5-fluoro phenylalanine, 2,3,4,5 tetra-fluoro Phenylalanine]
[1]
  fidelity (encoding): 100%
[2]
  fidelity (encoding): 97.4%

## N[C@@H](Cc1c(F)c(F)c(F)c(F)c1F)C(=O)O [Penta-fluoro Phe, 2,3,4,5,6 penta-fluoro Phenylalanine]
[8]
  useable ncAA concentration (dose-response): useable at sub-millimolar concentrations
[3]
  encoding level in E. coli by the synthetases tested: comparable levels to para-methyl tetra-fluoro Phe
[1]
  fidelity (encoding): 97.5%
[2]
  fidelity (encoding): 96.2%
[4]
  encoding fidelity: 98.2%
[5]
  encoding fidelity: 97.5%

## N[C@@H](Cc1ccccc1F)C(=O)O [2-fluoro Phe, 2-mono fluoro Phenylalanine]
[3]; E. coli, D6 synthetase
  expression in the screen: low expression in the screen
[2]; HEKT cells, sfGFP-N150TAG with PheX-B5, result in words
  site-specificity of encoding (ESI-MS): widespread encoding of 2-mono fluoro Phe at Phe-codons
[5]
  encoding fidelity: 95.6%

## N[C@@H](Cc1c(F)cccc1F)C(=O)O [2,6-fluoro Phe, 2,6 di-fluoro Phenylalanine]
[1]
  fidelity (encoding): 97.6%
[2]
  fidelity (encoding): 100%
[4]
  encoding fidelity: 95.0%
[5]
  encoding fidelity: 81.8%

Reference: patent publication US20250179465A1, “SITE-SPECIFIC ENCODING OF FLUORINATED PHENYLALANINE RESIDUES IN BACTERIAL AND MAMMALIAN CELLS” (University of Iowa Research Foundation, priority 2022, published 2025)
